Data set [1] has as its target T1, Human TRPA1 expressing CHO cells (Homo sapiens, UniProt O75762).
T1 construct: expressed in transfected cells; host or cells: CHO cells (under G-418 selection)
The data set is described as follows: 45Calcium uptake assay: inhibition of AITC induced cellular uptake of radioactive calcium. The conditions noted are these: AITC 30 μM, human TRPA1 CHO cells; for inhibition at 1 µM: 1.0 μM test compound, read-out: Percentage inhibition at 1.0 μM; for inhibition at 10 µM: 10.0 μM test compound, read-out: Percentage inhibition at 10.0 μM; for IC50: read-out: IC50 value (range). In kind it is cell-based. The procedure, abridged:
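CHO cells expressing human TRPA1 were preincubated 10 min with compound (0.5% DMSO final), then stimulated 3 min with 30 μM AITC plus 5 μCi/ml 45Ca2+. Lysate radioactivity gave % of maximal uninhibited response; IC50 by nonlinear regression.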

Data set [2] concerns male SD rats. The data set is described as follows: AITC-induced nocifensive behaviour in rats. The format is in vivo, rat. The conditions noted are these: 10 mg/kg, p.o., AITC 5%. An excerpt:
(§1) The illustrative examples of the present invention are screened for ‘in vivo’ TRPA1 based efficacy in various models of pain/hyperalgesia according to modified procedures described in (a) McNamara C R et al., PNASU (2007), 104, 13525-13530 (b) Eid S R et al., Molecular Pain, (2008), 4, 48 (c) Bennett G J and Xie Y K, Pain (1988), 33, 87-107. The screening of the compounds can also be carried out by some other methods and procedures known to persons skilled in the art.
AITC-Induced Nocifensive Behaviour in Rats
Allyl isothiocyanate (AITC), a selective activator of TRPA1 receptor channel, induces nocifensive behavior (paw flinching and licking responses) in rats. The number of flinches and licking responses were counted for 45 min following the injection of 5% AITC into the plantar region of the paw. AITC being an activator of TRPA1 receptor, this model serves as a mechanistic validation for screened molecules as selective antagonists at TRPA1 channel receptor.

The next data set deals with rats. The data set is described as follows: FCA (Freund's Complete Adjuvant)-induced inflammatory mechanical hyperalgesia. In kind it is in vivo, rat. The conditions noted are these: for maximum efficacy against FCA-induced mechanical hyperalgesia: rats.
Source text: as §1
FCA (Freund's Complete Adjuvant)-Induced Inflammatory Hyperalgesia
Freund's Complete Adjuvant (FCA), containing heat killed, dried Mycobaterium tuberculosis (1 mg/ml) emulsified in mineral oil and mannide monooleate, when injected (30 μl) into the plantar region of the paw of mice and rats induces an inflammatory hyperalgesia. Mechanical hyperalgesia (24 h after injection) was assessed by measuring hind paw withdrawal thresholds to an increasing pressure (g) stimulus, using the Randall-Sellitto analgesymeter (37215, Ugo Basile, Italy) fitted with a wedge-shaped probe.

A short description of data set [3]: Plasma levels after oral dosing in the rat pain models. The format is in vivo. Particulars: for concentration at 4 h / concentration at 2 h: Sprague-Dawley, AITC model; for concentration at 2 h: p.o.
In data set [4] the test system is male SD rats. The data set is described as follows: Formalin-induced nocifensive behaviour. The format is in vivo, rat. Particulars: 10 mg/kg, p.o., given 1.5 h (compound 10) or 3 h (compound 37) prior to formalin (2.5%).
Source text: as §1
Formalin-Induced Nocifensive Behaviour
Formalin also induces nocifensive behaviour (paw flinching and licking responses) in rats and mice. TRPA1-deficient mice show marked attenuation of characteristic paw flinching and licking responses as a result of intraplantar injection of formalin in a characteristic early and late phase manner. This model also serves as a selective TRPA1 based mechanistic model.
Compound 10 and compound 37 inhibited the formalin-induced nocifensive licking behaviour in both early & late phases in male SD rats.

For data set [5], the system named is male SD rats. The data set is described as follows: Chronic Constriction Injury (CCI)-induced neuropathic pain (Bennett's model). The format is in vivo, rat.
Source text: as §1
Chronic Constriction Injury (CCI)-Induced Neuropathic Pain (Bennett's Model)
Chronic constriction injury (CCI) of sciatic nerve in rats and mice induces inflammatory mechanical hyperalgesia in this Bennet's neuropathic pain model. Rats were anesthetized using ketamine/xylazine (40/5 mg/kg, i.p.) and the left sciatic nerve was exposed at mid thigh level through a small incision. Four loose ligatures of 4-0 chromic cat gut (Ethicon-Johnson & Johnson) at 1 mm space were placed around the sciatic nerve […] of common sciatic nerve. After 6-7 days, mechanical hyperalgesia was assessed by measuring hind paw withdrawal thresholds to an increasing pressure (g) stimulus, using the Randall-Sellitto analgesymeter (Ugo Basile, Italy), fitted with a wedge-shaped probe.

Setting [6] is: rat, plasma, oral, 10 mg/kg, male SD rats.

For orientation: inhibition means the percentage by which the read-out fell short of the control. For orientation: IC50 means the midpoint of a concentration-inhibition curve. By ED50 is commonly meant the dose at which the effect has come halfway, by size or by number of responders.

Like-named read-outs stand apart in the source and are kept apart here.

T1 sequence (O75762 whole entry): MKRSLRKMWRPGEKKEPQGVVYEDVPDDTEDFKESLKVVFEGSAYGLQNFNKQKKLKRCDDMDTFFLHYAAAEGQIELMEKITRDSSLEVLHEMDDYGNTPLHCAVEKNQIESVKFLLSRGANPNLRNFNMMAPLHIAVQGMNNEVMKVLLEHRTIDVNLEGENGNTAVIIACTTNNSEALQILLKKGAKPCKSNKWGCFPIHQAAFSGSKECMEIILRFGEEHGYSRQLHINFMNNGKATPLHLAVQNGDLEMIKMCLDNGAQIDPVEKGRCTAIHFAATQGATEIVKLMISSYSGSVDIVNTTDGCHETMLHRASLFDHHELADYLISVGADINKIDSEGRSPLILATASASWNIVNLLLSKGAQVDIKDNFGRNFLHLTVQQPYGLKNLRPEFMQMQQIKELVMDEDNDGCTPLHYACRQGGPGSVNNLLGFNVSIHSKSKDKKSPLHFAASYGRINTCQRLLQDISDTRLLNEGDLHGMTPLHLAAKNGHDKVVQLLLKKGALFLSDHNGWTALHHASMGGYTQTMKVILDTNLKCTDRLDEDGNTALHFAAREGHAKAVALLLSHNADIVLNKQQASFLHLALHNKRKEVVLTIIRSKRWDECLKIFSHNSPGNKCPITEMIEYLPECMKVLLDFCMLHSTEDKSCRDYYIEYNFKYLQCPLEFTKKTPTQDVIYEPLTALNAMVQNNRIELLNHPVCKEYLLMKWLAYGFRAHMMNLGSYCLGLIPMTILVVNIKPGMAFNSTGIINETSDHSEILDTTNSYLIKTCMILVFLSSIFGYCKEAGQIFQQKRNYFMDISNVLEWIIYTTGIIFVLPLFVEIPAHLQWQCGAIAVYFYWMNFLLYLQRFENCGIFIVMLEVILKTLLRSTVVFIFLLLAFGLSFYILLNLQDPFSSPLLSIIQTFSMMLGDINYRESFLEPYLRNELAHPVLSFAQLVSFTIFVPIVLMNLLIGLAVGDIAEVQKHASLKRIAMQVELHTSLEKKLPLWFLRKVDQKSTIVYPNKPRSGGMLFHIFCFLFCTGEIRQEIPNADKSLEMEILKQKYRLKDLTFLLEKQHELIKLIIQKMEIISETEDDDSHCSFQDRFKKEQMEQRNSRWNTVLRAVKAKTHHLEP

As for `Cn1c(=O)c2c(CC(=O)Nc3nc(-c4cccc(C(F)(F)F)c4)cs3)cccc2n(C)c1=O` [Example 15, N1-[4-(3-Trifluoromethylphenyl)-1,3-thiazol-2yl]-2-(1,3-dimethyl-2,4-dioxo-1,2,3,4-tetrahydro-5-quinazolinyl)acetamide], in data set [1], the inhibition at 1 µM was 98%, the inhibition at 10 µM came to 100% and the IC50 was less than 50 nM. The “inhibition of AITC induced flinching” value with male SD rats [2] is given as 59%. Further, the “maximum efficacy against FCA-induced mechanical hyperalgesia” value with rats (30 mg/kg (p.o.)) was roughly 70%. This molecule also registered a concentration at 4 h in data set [3] (setting [6]) of 9800 ng/mL. In addition, the concentration at 1 h in data set [3] (rat, plasma, oral, 30 mg/kg (p.o.), FCA model, rats) was determined as 3430 ng/mL.

In the case of `Cn1c(=O)c2c(CC(=O)Nc3nc(-c4ccc(Cl)cc4)cs3)cccc2n(C)c1=O` [Example 10], in data set [1], the inhibition at 1 µM was 99.7%, the inhibition at 10 µM stood at 99.9% and the IC50 is 50.1 to 100 nM. For the same molecule, in the data set with male SD rats [4], the “inhibition of the early phase nocifensive behaviour” value stood at 58% and the “inhibition of the late phase nocifensive behaviour” value was found to be 58%. Also, in the data set on rats (10 mg/kg, p.o.), the “maximum efficacy against FCA-induced mechanical hyperalgesia” value worked out at 81%. The 50% effective dose (ED50) in the data set with rats (Rattus norvegicus, po, doses 1, 3, 6 and 10 mg/kg) was 2.7 mg/kg. In addition, the “maximum efficacy, reversal of CCI-induced hyperalgesia” value in the data set with male SD rats [5] (10 mg/kg, acute and chronic administration) is 75%. Also, the 50% effective dose (ED50) in the data set with male SD rats [5] (Rattus norvegicus, read-out: ED50, CCI-induced neuropathic hyperalgesia) was determined as 3.5 mg/kg. Besides, the plasma levels in data set [3] (10 mg/kg, CCI model, male SD rats) was 5100 ng/mL. Moreover, the concentration at 2 h in data set [3] (rat, plasma, oral, 3 mg/kg, male SD rats, read-out: Plasma levels at 2 h) came to 2080 ng/mL. Further, in data set [3] (rat, plasma, oral, 10 mg/kg, male SD rats, read-out: Plasma levels at 2 h), the concentration at 2 h was determined as 7380 ng/mL. Also, the concentration at 2 h in data set [3] (rat, plasma, oral, 3, 5 and 10 mg/kg, male SD rats, read-out: plasma levels at 2 h post-dose (range over doses)) fell in the range of 2080 to 7380 ng/mL. Besides, the concentration at 0.5 h in data set [3] (rat, plasma, oral, 10 mg/kg, FCA model, rats) amounted to 3500 ng/mL.

In the case of `O=C(Cc1cccc2[nH]c(=O)[nH]c(=O)c12)Nc1nc(-c2ccc(Cl)cc2)cs1` [Example 29, N1-[4-(4-Chlorophenyl)-1,3-thiazol-2-yl]-2-(2,4-dioxo-1,2,3,4-tetrahydro-5-quinazolinyl)acetamide], in data set [1], the inhibition at 1 µM worked out at 20.9% and the inhibition at 10 µM was found to be 47.7%.

For the molecule `Cn1c(=O)c2c(CC(=O)Nc3nc4c(s3)CCc3cc(Cl)ccc3-4)cccc2n(C)c1=O` [Example 78], in data set [1], the inhibition at 1 µM stood at 59.8%, the inhibition at 10 µM was determined as 90.3% and the concentration for half-maximal inhibition (IC50) was greater than 100 nM.

On to `Cc1ccc(Oc2ccc(NC(=O)Cc3cccc4c3c(=O)n(C)c(=O)n4C)cc2)cc1` [Example 3, N1-[4-(4-Methylphenoxy)phenyl]-2-(1,3-dimethyl-2,4-dioxo-1,2,3,4-tetrahydro-5-quinazolinyl)acetamide], for which, in data set [1], the inhibition at 1 µM turned out to be 7.98% and the inhibition at 10 µM was determined as 31.6%.

With `Cn1c(=O)c2c(CC(=O)Nc3nc(-c4cccc(Cl)c4)cs3)cccc2n(C)c1=O` [Example 11, N1-[4-(3-Chlorophenyl)-1,3-thiazol-2yl]-2-(1,3-dimethyl-2,4-dioxo-1,2,3,4-tetrahydro-5-quinazolinyl)acetamide], in data set [1], the inhibition at 1 µM was 95.5%, the inhibition at 10 µM was determined as 99.1% and the IC50 is greater than 100 nM.

Regarding `COc1c(F)cc(-c2csc(NC(=O)Cc3cccc4c3c(=O)n(C)c(=O)n4C)n2)cc1F` [Example 71, N1-[4-(3,5-Difluoro-4-methoxyphenyl)-1,3-thiazol-2-yl]-2-(1,3-dimethyl-2,4-dioxo-1,2,3,4-tetrahydroquinazolin-5-yl)acetamide], in data set [1], the inhibition at 1 µM amounted to 83.6%, the inhibition at 10 µM turned out to be 98.9% and the IC50 is less than 50 nM.

As to `Cn1c(=O)c2c(CC(=O)Nc3nc(-c4ccc(C(F)(F)F)c(F)c4)cs3)cccc2n(C)c1=O` [Example 37, N1-[4-(3-Fluoro-4-trifluoromethylphenyl)-1,3-thiazol-2-yl]-2-(1,3-dimethyl-2,4-dioxo-1,2,3,4-tetrahydro-5-quinazolinyl)acetamide], in data set [1], the inhibition at 1 µM was determined as 97.5%, the inhibition at 10 µM was determined as 99.4% and the concentration for half-maximal inhibition (IC50) was less than 50 nM. Also, in the data set on male SD rats [2], the “inhibition of AITC induced flinching” value is reported as 39%. For the same molecule, in the data set with male SD rats [4], the “inhibition of the early phase nocifensive behaviour” value was 18% and the “inhibition of the late phase nocifensive behaviour” value is 59%. The molecule further showed a concentration at 4 h in data set [3] (setting [6]) of 6200 ng/mL.

For the molecule `CC(C)Cc1ccc(-c2csc(NC(=O)Cc3cccc4c3c(=O)n(C)c(=O)n4C)n2)cc1` [Example 21], in data set [1], the inhibition at 1 µM was 95.7%, the inhibition at 10 µM was determined as 99.7% and the IC50 is less than 50 nM.

(Values after patent publication US7951814B2, “Quinazolinedione derivatives as TRPA1 modulators” (Glenmark Pharmaceuticals, S.A., priority 2008, dated 2011).)
